Where two headings read alike, the source gives them in different places.
Experiments:
[1] = target: 6×HIS-tankyrase 1 (1091-1325) (Homo sapiens (Human), UniProt O95271); assay: biochemical; type: biochemical; conditions: […] enzyme, 400 nM NAD, 60 minutes at room temperature; read-out: TNKS1 IP IC50
[2] = tested on: total β-catenin in SW480 colorectal cells; assay: cells; type: cell-based; conditions: Homo sapiens
Procedure, shortened: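 SW480 cells in growth medium (MEM alpha, 10% heat-inactivated FBS, 10 mM HEPES) treated with a 10-point, 3-fold dilution series of TNKS inhibitor for 40–48 h at 37 °C. Lysates run on an MSD sandwich immunoassay for total β-catenin, read by electrochemiluminescence.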

Axin2 in SW480 cells = assay: cells; type: cell-based; conditions: read-out: Axin2 384 IF EC50 IP
Protocol: Using a VPrep, 10 μL of compound/controls was transferred from the compound plate to 60 μL in the cell plate (final 0.5% DMSO, 70 μL). The mixture was incubated for 24 hours at 37° C. at 5% CO2.
The extra media was tapped out. 50 μL of 4% paraformaldehyde (Fisher, AA433689M), 0.1% Triton (Sigma, X100-100 ML) in PBS were added, and the mixture was incubated for 15 minutes at room temperature. […] The extra media was tapped out and to this was added 50 μL of buffer containing Axin2 Antibody (Sigma, SAB1100677-200 µL) at 1:10000 in PBS, 0.1% Tween-20, 1% Normal Goat Serum. The mixture was incubated for 2 hours at room temperature or overnight at 4° C. The cells were then washed twice with PBS, 0.1% Tween-20, and 1% Normal Goat Serum. […] The mixture was then incubated for 30 minutes at room temperature. The cells were then washed twice with PBS, 0.1% Tween-20, and 1% Normal Goat Serum. 50-100 μL PBS was added, and the mixture was covered with a plate seal (Fisher, NC9425162). An ArrayScan (a variation of the compartmental analysis protocol was optimized) was used to scan the plates, and data was analyzed using MEAN_RingSpotAvgIntenCh2). The Axin2 accumulation POC was calculated, and the EC50 was determined using Genedata Screener software to report Axin2 activity.

[3] = SW480 cells, 40 to 48 hours, top concentration 10 μM, read-out: SW480-Total β-Catenin IC50 IP
[4] = Homo sapiens, SW480, 24 h, SW480 cells, 24 hours
[5] = SW480, read-out: SW480-Total β-Catenin IC50 IP

Chain of 6×HIS-tankyrase 1 (1091-1325) (O95271 1091-1325): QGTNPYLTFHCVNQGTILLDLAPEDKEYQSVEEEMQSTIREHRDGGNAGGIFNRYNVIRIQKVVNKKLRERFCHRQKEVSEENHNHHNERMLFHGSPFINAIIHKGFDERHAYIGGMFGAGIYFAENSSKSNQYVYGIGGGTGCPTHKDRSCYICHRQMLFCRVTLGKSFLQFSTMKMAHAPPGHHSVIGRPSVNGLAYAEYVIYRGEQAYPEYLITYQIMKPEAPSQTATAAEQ

Compound	IC50 [1]	IC50 [2, 3]	EC50 (Axin2 in SW480 cells; [4])	IC50 [2, 5]	EC50 (Axin2 in SW480 cells; Homo sapiens, SW480, 24 h)	EC50 (Axin2 in SW480 cells; SW480 cells, 24 hours)
CC1(C)OC(=O)N([C@H]2CC[C@H](n3c(=O)[nH]c4cnc(C(F)(F)F)cc43)CC2)[C@H]1c1ccccc1 [Example 52, (S)-5,5-dimethyl-3-((1r,4S)-4-(2-oxo-6-(trifluoromethyl)-2,3-dihydro-1H-imidazo[4,5-c]pyridin-1-yl)cyclohexyl)-4-phenyloxazolidin-2-one]	25.8 nM	693 nM	1.03 µM	–	–	–
C[C@]1(c2ccccc2)CN([C@H]2CC[C@H](n3c(=O)[nH]c4cnccc43)CC2)C(=O)O1 (single isomer, unassigned) [Example 91]	9.01 nM	3610 nM	4.43 µM	–	–	–
CC1(C)OC(=O)N([C@H]2CC[C@H](c3cnc4[nH]c(=O)n(-c5ncccn5)c4c3)CC2)[C@H]1c1ccccc1 [Example 98, (S)-5,5-dimethyl-3-((1r,4S)-4-(2-oxo-1-(pyrimidin-2-yl)-2,3-dihydro-1H-imidazo[4,5-b]pyridin-6-yl)cyclohexyl)-4-phenyloxazolidin-2-one]	0.316 nM	48.2 nM	0.0357 µM	–	–	–
CC1(C)OC(=O)N(C2CC=C(c3cnc(N)c(-c4ncccn4)c3)CC2)C1c1ccccc1 (stereo not shown) [Example 131, 3-(4-(6-amino-5-(pyrimidin-2-yl)pyridin-3-yl)cyclohex-3-en-1-yl)-5,5-dimethyl-4-phenyloxazolidin-2-one]	16 nM	362 nM	1.03 µM	–	–	–
CC1(C)OC(=O)N([C@H]2CC[C@H](c3cnc4[nH]c(=O)n(-c5ncccn5)c4c3)CC2)[C@@H]1c1ccccc1 (single isomer, unassigned) [Example 14]	26.8 nM	923 nM	1.03 µM	–	–	–
CC1(C)OC(=O)N(c2ccc(-c3nnc4ccc(Cl)nn34)cc2)[C@H]1c1ccccc1 [Example 68, (S)-3-(4-(6-chloro-[1,2,4]triazolo[4,3-b]pyridazin-3-yl)phenyl)-5,5-dimethyl-4-phenyloxazolidin-2-one]	1980 nM	> 10000 nM	> 25 µM	–	–	–
CC1(C)OC(=O)N(c2ccc(C(=O)Nc3cccc4cccnc34)cc2)[C@H]1c1ccc(F)cc1 [Example 2, (S)-4-(4-(4-fluorophenyl)-5,5-dimethyl-2-oxooxazolidin-3-yl)-N-(quinolin-8-yl)benzamide]	307 nM	1960 nM	5.48 µM	–	–	–
CC1(C)OC(=O)N(c2ccc(-c3cc(-c4ccccn4)c[nH]c3=O)cc2)[C@H]1c1ccccc1 [Example 115, (S)-5,5-dimethyl-3-(4-(6′-oxo-1′,6′-dihydro-[2,3′-bipyridin]-5′-yl)phenyl)-4-phenyloxazolidin-2-one]	95.3 nM	1010 nM	4.38 µM	–	–	–
COc1ccc([C@@H]2N(c3ccc(C(=O)Nc4cccc5cccnc45)cc3)C(=O)OC2(C)C)cc1 [Example 113, (S)-4-(4-(4-methoxyphenyl)-5,5-dimethyl-2-oxooxazolidin-3-yl)-N-(quinolin-8-yl)benzamide]	130 nM	2110 nM	5.22 µM	–	–	–
CC1(C)OC(=O)N([C@H]2CC[C@H](c3cc(-c4ncccn4)c[nH]c3=O)CC2)[C@H]1c1ccccc1 [Example 81, 3-(trans-4-((4S)-5,5-dimethyl-2-oxo-4-phenyl-1,3-oxazolidin-3-yl)cyclohexyl)-5-(2-pyrimidinyl)-2(1H)-pyridinone]	11.4 nM	–	–	767 nM	0.84 µM	–
CC1(C)OC(=O)N(c2ccc(-c3cc(-c4ncccn4)cnc3F)cc2)[C@H]1c1ccccc1 [Example 3, (S)-3-(4-(2-Fluoro-5-(pyrimidin-2-yl)pyridin-3-yl)phenyl)-5,5-dimethyl-4-phenyloxazolidin-2-one]	378 nM	1750 nM	> 25 µM	–	–	–
CC1(C)OC(=O)N(c2ccc(-c3nnc4cc(C#N)ccn34)cc2)[C@H]1c1ccccc1 [Example 67, (S)-3-(4-(5,5-dimethyl-2-oxo-4-phenyloxazolidin-3-yl)phenyl)-[1,2,4]triazolo[4,3-a]pyridine-7-carbonitrile]	5230 nM	> 10000 nM	> 25 µM	–	–	–
CC1(C)OC(=O)N(c2ccc(-c3cc(-c4nccc(C#N)n4)c[nH]c3=O)cc2)[C@H]1c1ccccc1 [Example 120, (S)-2-(5-(4-(5,5-dimethyl-2-oxo-4-phenyloxazolidin-3-yl)phenyl)-6-oxo-1,6-dihydropyridin-3-yl)pyrimidine-4-carbonitrile]	75.8 nM	2360 nM	0.825 µM	–	–	–
CC1(C)OC(=O)N(c2ccc3c(c2)CCN(c2cccc4cccnc24)C3=O)[C@H]1c1ccccc1 [Example 63, (S)-5,5-dimethyl-3-(1-oxo-2-(quinolin-8-yl)-1,2,3,4-tetrahydroisoquinolin-6-yl)-4-phenyloxazolidin-2-one]	7050 nM	> 10000 nM	> 25 µM	–	–	–
C[C@@]1(c2ccccc2)CN([C@H]2CC[C@H](n3c(=O)[nH]c4cnccc43)CC2)C(=O)O1 (single isomer, unassigned) [Example 90]	772 nM	> 10000 nM	> 25 µM	–	–	–
CC1(C)OC(=O)N([C@H]2CC[C@H](c3cnc(N)c(C4=NCCCN4)c3)CC2)[C@H]1c1ccccc1 [Example 77, (S)-3-((1r,4S)-4-(6-amino-5-(1,4,5,6-tetrahydropyrimidin-2-yl)pyridin-3-yl)cyclohexyl)-5,5-dimethyl-4-phenyloxazolidin-2-one]	1650 nM	> 10000 nM	> 25 µM	–	–	–
CC1(C)OC(=O)N([C@H]2CC[C@H](c3cc(-c4ncccn4)c[nH]c3=O)CC2)[C@@H]1c1ccccc1 [Example 82, 3-(trans-4-((4R)-5,5-dimethyl-2-oxo-4-phenyl-1,3-oxazolidin-3-yl)cyclohexyl)-5-(2-pyrimidinyl)-2(1H)-pyridinone]	195 nM	–	–	1340 nM	7.13 µM	–
CC1(C)OC(=O)N(c2ccc(-n3c(=O)[nH]c4ccccc43)nc2)[C@H]1c1ccccc1 [Example 22, (S)-5,5-dimethyl-3-(6-(2-oxo-2,3-dihydro-1H-benzo[d]imidazol-1-yl)pyridin-3-yl)-4-phenyloxazolidin-2-one]	1430 nM	> 10000 nM	> 25 µM	–	–	–
CC1(C)OC(=O)N(c2ccc(-c3nnc4cc(-c5cncnc5)ccn34)cc2)[C@H]1c1ccccc1 [Example 66, (S)-5,5-dimethyl-4-phenyl-3-(4-(7-(pyrimidin-5-yl)-[1,2,4]triazolo[4,3-a]pyridin-3-yl)phenyl)oxazolidin-2-one]	1970 nM	9270 nM	> 25 µM	–	–	–
CC1(C)OC(=O)N(c2ccc(-n3cc(-c4ccccc4)[nH]c3=O)cc2)[C@H]1c1ccccc1 [Example 80, (4S)-5,5-dimethyl-3-(4-(2-oxo-4-phenyl-2,3-dihydro-1H-imidazol-1-yl)phenyl)-4-phenyl-1,3-oxazolidin-2-one]	3080 nM	1360 nM	> 12.5 µM	–	–	> 25 µM
CC1(C)OC(=O)N(c2ccc(-c3cnc(N)c(-c4cnnc(Cl)c4)c3)cc2)[C@H]1c1ccccc1 (single isomer, unassigned) [Example 101]	16.2 nM	210 nM	0.197 µM	–	–	–
CC1(C)OC(=O)N(c2ccc(-c3cc(-c4ncccn4)ncc3F)cc2)[C@H]1c1ccccc1 [Example 129, (S)-3-(4-(5-fluoro-2-(pyrimidin-2-yl)pyridin-4-yl)phenyl)-5,5-dimethyl-4-phenyloxazolidin-2-one]	1830 nM	> 10000 nM	> 25 µM	–	–	–
COc1cccc([C@H]2N(c3ccc(C(=O)Nc4cccc5cccnc45)cc3)C(=O)OC2(C)C)c1 [Example 106, (R)-4-(4-(3-Methoxyphenyl)-5,5-dimethyl-2-oxooxazolidin-3-yl)-N-(quinolin-8-yl)benzamide]	1880 nM	6650 nM	> 25 µM	–	–	–
CC1(C)OC(=O)N([C@H]2CC[C@H](n3c(=O)[nH]c4cnc(Cl)cc43)CC2)[C@H]1c1ccccc1 [Example 53, (S)-3-((1r,4S)-4-(6-chloro-2-oxo-2,3-dihydro-1H-imidazo[4,5-c]pyridin-1-yl)cyclohexyl)-5,5-dimethyl-4-phenyloxazolidin-2-one]	6.52 nM	284 nM	0.291 µM	–	–	–
CC1(C)OC(=O)N([C@H]2CC[C@H](n3c(=O)[nH]c4cc(C#N)ccc43)CC2)[C@H]1c1ccc(F)cc1 [Example 61, 1-((1S,4r)-4-((S)-4-(4-fluorophenyl)-5,5-dimethyl-2-oxooxazolidin-3-yl)cyclohexyl)-2-oxo-2,3-dihydro-1H-benzo[d]imidazole-5-carbonitrile]	3.42 nM	148 nM	0.238 µM	–	–	–

Reference: patent US9340549B2, “Oxazolidinone compounds and derivatives thereof” (priority 2012, dated 2016)
